The results in this text go back to patent US7691849B2, “Carboxamidine derivatives and their use in the treatment of vascular diseases” (CytRx Corporation, priority 2002, dated 2010).

The subject of test [1] is thoracic aorta of SH rats. Briefly: Vaso-relaxing effect on the thoracic aorta of SH rats treated for one month (in vitro testing of aorta rings). The class given is in vivo, rat. Particulars: aorta rings contracted with 10^-6 M methoxamine. The method, then:
In the following, we give the results of the test of blood vessel relaxing effect, performed in vitro on rat vessels, and also the morpholocial results of the thoracic aorta.
(§1) Three-month-old, genetically hypertonic (SH) Wistar Okamoto rats were treated for one month with various test compounds. Thereafter the functional and morphological tests were performed.
The Vaso-relaxing Effect of the Compounds of the Invention on the Thoracic Aorta of SH Rats (in Vitro Testing)
The test was performed by the method known from the literature [Japan J. Pharmacol., 59, 339-347 (1992)]. The SH rats were anesthetized with Nembutal (40 mg/kg, i. p.), then the thoracic aorta was removed and placed in oxygenized (95% O2+5% CO2) Krebs-Henseleit solution. The composition of the solution (mM): NaCl 118, KCl 4,7, CaCl2 2,52, MgSO4 1,64, NaHCO3 24,88, KH2PO4 1,18, glucose 5,5. The 3-mm-long aorta rings were suspended in a 20 ml organ bath of 37° C. The resting tension was 1 g, which was maintained throughout the equilibration. During the 1 hour equilibration, the medium was changed in every 20 minutes. The vessels were contracted with 10^−6 M methoxamine (approx. 80% of maximal contraction). After reaching the maximal contraction, we tested the vasodilation resulting as the effect of the acetylcholine (Ach) (10^−6-10^−4 M), which informed us about the condition of the endothelium of the vessel wall. The contraction force was measured by an isometric strain gauge (SG-01D, Experimentia Ltd), and was registered on an OH-850 polygraph (Radelkis). At this time again, 5,6-dihydro-5-(1-piperidinyi)-methyl-3-(3-pyridyl)-4H-1,2,4-oxadiazine as described in WO 98/06400 was used as a reference compound.

In test [2] the test system is human umbilical vein endothelial cells (HUVEC). Briefly: Wounding migration assay in endothelial cell culture. Format: cell-based. Particulars: wounded HUVEC monolayer, 24 hours after wounding, active agent 10^-6 M. The text has this:
The following compounds of the Invention are especially preferable: • 1. N-[3-(1-piperidinyl)propoxy]-pyridin-1-oxide-3-carboxamidine • 2. N-[3-(1-piperidinyl)propoxy]-pyridin-1-oxide-3-carboximidoyl chloride • 3. N-[2-hydroxy-3-(1-piperidinyl)propoxy]-N′-n-butyl-pyridin-1-oxide-4-carboxamidine • 4. N-[3-(1-oxido-1-piperidinyl)propoxy]-3-nitro-benzimidoyl-chloride dihydrate • 5. 2-chloro-N-[3-(4-oxido-4-morpholinyl)propoxy]-benzimidoyl chloride • 6. (R,S)-5,6-dihydro-5-[(1-piperidinyl)methyl]-3-(1-oxido-3-pyridyl)-4H-1,2,4-oxadiazine • 7. 5,6-dihydro-5-[(4-benzyl-1-piperidinyl)methyl]-3-(3-pyridyl)-4H-1,2,4-oxadiazine • 8. (R) or (S)-5,6-dihydro-5-[(2-oxo-1-piperidinyl)methyl]-3-(3-pyridyl)-4H-1,2,4-oxadiazine • 9. (+)-5,6-dihydro-5-[(1-piperidlnyl)methyl]-3-(1-oxido-3-pyridyl)4H-1,2,4-oxadiazine • 10. (R) or (S)-5,6-dihydro-5-[(1-oxido-1-piperidinyl)methyl]-3-(1-oxido-3-pyridyl)-4H-1,2,4-oxadiazine • 11. 5.6-dihydro-5-[(4-hydroxy-1-piperidinyl)methyl]-3-(3-pyridyl)-4H-1,2,4-oxadiazine • 12. N-[2-chloro-3-(1-piperidinly)propoxyl]-benzimidoyl chloride hydrochloride • 13. N-[2-hydroxy-3-(1-piperidinyl)propoxy]-pyridin-1-oxide-3-carboxamide • The biological effects of the compounds of the invention were tested by the following experiments: • Wounding migration assay in endothelial cell culture
The effect of the compounds of the invention on the wounded monolayers of human umbilical vein endothelial cells (HUVEC) were studied in a cell culture system (in vitro). After reaching confluence, the HUVEC cells were wounded according to the method of Yamamura et al (J. Surgical Res. 63, 349-354, 1996). The number of migrated cells were registered using computerized image analysis 24 hours after wounding in the absence and presence of the active agents under testing in a concentration of 10^−6 M. The active ingredient described in publication no. WO 98/06400, namely 5,6-dihydro-5-(1-piperidinyl)-methyl-3-(3-pyridyl)-4H-1,2,4-oxadiazine was used as reference compound.

In test [3] the test system is thoracic aorta of SH rats. The test can be described thus: Morphological testing of the thoracic aortas with electron microscopy. Set-up: key: 1 was used to refer to cases where no regeneration was observable; 2 refers to weak; 3 to average; 4 to good; 5 to strong regeneration. The class given is in vivo, rat. Particulars: SH rats treated one month, scale of 1 to 5, electron microscopy of thoracic aorta. The protocol:
as §1
Morphological Testing of the Thoracic Aortas with Electron Microscopy
The test was performed according to the procedure known from the literature (Br. J. of Pharmacol., 1995; 115, 415-420). 1 mm^2 pieces of the aorta wall was cut out of the thoracic aorta of the rats, and were then fixed with 2.5% glutaraldehyde at room temperature for 2 hours. This was followed by a post-fixation with 1% osmium tetroxide for 1 hour. Afterwards, the tissue pieces were dehydrated with ethanol, and embedded in Durcupan ACM. The samples were evaluated qualitatively based on the images recorded on a Hitachi 7100 electron microscope.
On the scale, 1 was used to refer to cases where no regeneration was observable, 2 refers to weak, 3 to average, 4 to good, and 5 to strong regeneration.

For the compound `O=C(NOCC(O)CN1CCCCC1)c1ccc[n+]([O-])c1` (stereo not shown) [Compound 13, N-[2-hydroxy-3-(1-piperidinyl)propoxy]-pyridin-1-oxide-3-carboxamide], the “vessel relaxing effect (vasodilation by acetylcholine)” value (from here on “vessel relaxing effect”) in test [1] (Ach 10^-4 M, dose not given) was determined as 95.2; in test [1] (Ach 10^-5 M, dose not given), 90.3; in test [1] (Ach 10^-6 M, dose not given), 88.4. Moreover, in test [2], the “number of migrated cells” value came to 54 cell/mm^2. Also, the Degree of regeneration in test [3] (20 mg/kg p.o.) amounted to 4.
Take `O=C1CCCCN1CC1CON=C(c2cccnc2)N1` (single isomer, unassigned) [Compound 8, (R) or (S)-5,6-dihydro-5-[(2-oxo-1-piperidinyl)methyl]-3-(3-pyridyl)-4H-1,2,4-oxadiazine]: the “vessel relaxing effect” value was found to be 89.2 in test [1] (Ach 10^-4 M, 20 mg/kg); 88.0 in test [1] (Ach 10^-5 M, 20 mg/kg); 80.3 in test [1] (Ach 10^-6 M, 20 mg/kg). In addition, the “number of migrated cells” value in test [2] is on record as 48 cell/mm^2. This compound showed a Degree of regeneration in test [3] (5 mg/kg p.o.) of 5.
For the compound `[O-][n+]1cccc(C2=NOCC(CN3CCCCC3)N2)c1` (single isomer, unassigned; (+)) [Compound 9, (+)-5,6-dihydro-5-[(1-piperidinyl)methyl]-3-(1-oxido-3-pyridyl)-4H-1,2,4-oxadiazine], the “vessel relaxing effect” value is reported as 93.2 in test [1] (Ach 10^-4 M, 5 mg/kg); 87.9 in test [1] (Ach 10^-5 M, 5 mg/kg); 87.0 in test [1] (Ach 10^-6 M, 5 mg/kg). For the same compound, the “number of migrated cells” value in test [2] came out at 52 cell/mm^2. The compound also showed a Degree of regeneration in test [3] (5 mg/kg p.o.) of 5.
Consider `OC1CCN(CC2CON=C(c3cccnc3)N2)CC1` (stereo not shown) [Compound 11, 5.6-dihydro-5-[(4-hydroxy-1-piperidinyl)methyl]-3-(3-pyridyl)-4H-1,2,4-oxadiazine], for which the “vessel relaxing effect” value came out at 86.0 in test [1] (Ach 10^-4 M, 10 mg/kg); 85.1 in test [1] (Ach 10^-5 M, 10 mg/kg); 79.7 in test [1] (Ach 10^-6 M, 10 mg/kg). In addition, the “number of migrated cells” value in test [2] was 51 cell/mm^2. Besides, in test [3] (10 mg/kg p.o.), the Degree of regeneration came out at 4.
On to `c1cncc(C2=NOCC(CN3CCCCC3)N2)c1` (stereo not shown) [Reference, 5,6-dihydro-5-(1-piperidinyl)-methyl-3-(3-pyridyl)-4H-1,2,4-oxadiazine, reference compound], for which the “vessel relaxing effect” value was 81.7 in test [1] (Ach 10^-4 M, 20 mg/kg); 80.2 in test [1] (Ach 10^-5 M, 20 mg/kg); 77.4 in test [1] (Ach 10^-6 M, 20 mg/kg). For the same compound, in test [2], the “number of migrated cells” value came out at 30 cell/mm^2.
Consider `O.O.O=[N+]([O-])c1cccc(C(Cl)=NOCCC[N+]2([O-])CCCCC2)c1` [Compound 4, N-[3-(1-oxido-1-piperidinyl)propoxy]-3-nitro-benzimidoyl-chloride dihydrate], for which the “vessel relaxing effect” value in test [1] (Ach 10^-4 M, 5 mg/kg) is 88.1; in test [1] (Ach 10^-5 M, 5 mg/kg), 84.9; in test [1] (Ach 10^-6 M, 5 mg/kg), 82.5. In addition, the “number of migrated cells” value in test [2] is given as 45 cell/mm^2. Further, the Degree of regeneration in test [3] (20 mg/kg p.o.) was determined as 5.
Consider `Cl.ClC(=NOCC(Cl)CN1CCCCC1)c1ccccc1` (stereo not shown) [Compound 12, N-[2-chloro-3-(1-piperidinly)propoxyl]-benzimidoyl chloride hydrochloride], for which the “vessel relaxing effect” value in test [1] (Ach 10^-4 M, 20 mg/kg) turned out to be 80.4; in test [1] (Ach 10^-5 M, 20 mg/kg), 83.5; in test [1] (Ach 10^-6 M, 20 mg/kg) it was 82.3. Also, the “number of migrated cells” value in test [2] was 60 cell/mm^2. Further, in test [3] (20 mg/kg p.o.), the Degree of regeneration is on record as 3.
